The record followed here is publication PMC5817852 (The Open Medicinal Chemistry Journal, 2018).

One data set deals with HT29 colorectal carcinoma. The data set is described as follows: qHTS cell viability screen (Cell Titer Glo), HT29. The format is cell-based. Conditions: Homo sapiens, HT-29, 72 h, read-out: CC50 HT29.
Take `COc1cc(/C=C2/C(C)=C(CNC(=O)[C@@H](N)CC(C)C)c3cc(F)ccc32)cc(OC)c1OC` [Compound 31]: the 50% cytotoxic concentration (CC50) came out at 5.21 ± 0.39 µM.

Staying with this data set, now noted: versus SSA.
In the case of “3,4,5-trimethoxybenzylidene-3-indenylmethyl-2-phenylacetamide [Compound 26]”, the “increased anticancer activity in comparison with SSA, colon cancer cells” value was 6-7 fold.

Another data set concerns PC3 prostate cancer cell line. The data set is described as follows: qHTS cell viability screen (Cell Titer Glo), PC3. It is filed as cell-based. Conditions: 72 h, PC3 prostate, 72 hours, cell viability Cell Titer Glo; read-out: CC50 PC3. On the technique in general: qHTS replaces the single test concentration by a dilution series.
For the compound `CSc1ccc(/C=C2/C(C)=C(CNC(=O)[C@@H](N)CC(C)C)c3cc(F)ccc32)cc1` [Compound 23], the 50% cytotoxic concentration (CC50) is < 10 µM.

On to `CSc1ccc(/C=C2/C(C)=C(CNC(=O)[C@@H](N)C(C)C)c3cc(F)ccc32)cc1` [Compound 24], for which the CC50 is < 10 µM.

Regarding `COc1cc(/C=C2/C(C)=C(CNC(=O)[C@@H](N)C(C)C)c3cc(F)ccc32)cc(OC)c1OC` [Compound 32], the cytotoxic concentration (CC50) was < 10 µM.

Still in this data set, the particulars now being: 72 h, read-out: CC50 PC3.
`COc1cc(/C=C2/C(C)=C(CNC(=O)[C@@H](N)CC(C)C)c3cc(F)ccc32)cc(OC)c1OC` [Compound 31]: the CC50 is 12 ± 1.47 µM.

The data set is the same for the next values; noted with them: PC3 prostate, 72 hours, cell viability Cell Titer Glo; read-out: CC50 PC3.
`CSc1ccc(/C=C2/C(C)=C(CNC(=O)[C@@H](N)CC(C)C)c3cc(F)ccc32)cc1` [Compound 23]: the cytotoxic concentration (CC50) turned out to be 6.21 ± 0.49 µM.

For the compound `CSc1ccc(/C=C2/C(C)=C(CNC(=O)[C@@H](N)C(C)C)c3cc(F)ccc32)cc1` [Compound 24], the half-maximal cytotoxic concentration (CC50) was 5.16 ± 0.5 µM.

In the case of `COc1cc(/C=C2/C(C)=C(CNC(=O)[C@@H](N)C(C)C)c3cc(F)ccc32)cc(OC)c1OC` [Compound 32], the cytotoxic concentration (CC50) was 8.11 ± 0.41 µM.

Consider `COc1cc(/C=C2/C(C)=C(CN(Cc3ccncc3)Cc3ccncc3)c3cc(F)ccc32)cc(OC)c1OC` [Compound 56], for which the 50% cytotoxic concentration (CC50) is 9.09 ± 0.87 µM.

The data set is the same for the next values; noted with them: versus SSA.
In the case of “3,4,5-trimethoxybenzylidene-3-indenylmethyl-2-phenylacetamide [Compound 26]”, the “increased anticancer activity in comparison with SSA, prostate cancer cells” value is 6-7 fold.

Another data set deals with MDA-MB-231 breast cancer cell line. The data set is described as follows: qHTS cell viability screen (Cell Titer Glo), MDA-MB-231. It is filed as cell-based. Conditions: Homo sapiens, MDA-MB-231, 96 h, MDA-MB-231 breast, 96 hours, cell viability Cell Titer Glo; read-out: CC50 MDA-MB-231.
Turning to `CSc1ccc(/C=C2/C(C)=C(CNC(=O)[C@@H](N)CC(C)C)c3cc(F)ccc32)cc1` [Compound 23], the 50% cytotoxic concentration (CC50) is < 10 µM.

For `CSc1ccc(/C=C2/C(C)=C(CNC(=O)[C@@H](N)C(C)C)c3cc(F)ccc32)cc1` [Compound 24], the CC50 is < 10 µM.

Take `COc1cc(/C=C2/C(C)=C(CNC(=O)[C@@H](N)C(C)C)c3cc(F)ccc32)cc(OC)c1OC` [Compound 32]: the 50% cytotoxic concentration (CC50) was < 10 µM.

The data set is the same for the next values; noted with them: Homo sapiens, MDA-MB-231, 96 h, read-out: CC50 MDA-MB-231.
Consider `COc1cc(/C=C2/C(C)=C(CNC(=O)[C@@H](N)CC(C)C)c3cc(F)ccc32)cc(OC)c1OC` [Compound 31], for which the CC50 turned out to be 8.87 ± 1.38 µM.

Staying with this data set, now noted: MDA-MB-231 breast, 96 hours, cell viability Cell Titer Glo; read-out: CC50 MDA-MB-231.
Turning to `CSc1ccc(/C=C2/C(C)=C(CNC(=O)[C@@H](N)CC(C)C)c3cc(F)ccc32)cc1` [Compound 23], the half-maximal cytotoxic concentration (CC50) came to 6.7 ± 0.71 µM.

On to `CSc1ccc(/C=C2/C(C)=C(CNC(=O)[C@@H](N)C(C)C)c3cc(F)ccc32)cc1` [Compound 24], for which the half-maximal cytotoxic concentration (CC50) came to 6.81 ± 0.63 µM.

As to `COc1cc(/C=C2/C(C)=C(CNC(=O)[C@@H](N)C(C)C)c3cc(F)ccc32)cc(OC)c1OC` [Compound 32], the cytotoxic concentration (CC50) amounted to 7.3 ± 0.73 µM.

The same data set, now with this note: versus SSA.
Regarding “3,4,5-trimethoxybenzylidene-3-indenylmethyl-2-phenylacetamide [Compound 26]”, the “increased anticancer activity in comparison with SSA, breast cancer cells” value amounted to 27 fold.

For the next data set, the system named is NALM16 cell line (acute lymphoblastic leukemia). The data set is described as follows: Additional cancer cell line panel, NALM16. It is filed as cell-based, human. The note with it: Homo sapiens, NALM16; confidence intervals in parentheses; NA: not active.
As for `CSc1ccc(/C=C2/C(C)=C(CNC(=O)[C@@H](N)CC(C)C)c3cc(F)ccc32)cc1` [Compound 23], the EC50 is 30 µM.

The data set is the same for the next values; noted with them: confidence intervals in parentheses; NA: not active.
On to “3,4,5-trimethoxybenzylidene-3-indenylmethyl-2-phenylacetamide [Compound 26]”, for which the EC50 is 8.1 µM.

Take `COc1cc(/C=C2/C(C)=C(CN(Cc3ccncc3)Cc3ccncc3)c3cc(F)ccc32)cc(OC)c1OC` [Compound 56]: the EC50 amounted to 32 µM.

Another data set relates to RAJI cells (Burkitt's leukaemia/lymphoma). The data set is described as follows: Additional cancer cell line panel, RAJI. It is filed as cell-based. Conditions: Homo sapiens, Raji; confidence intervals in parentheses; NA: not active.
Consider `CSc1ccc(/C=C2/C(C)=C(CNC(=O)[C@@H](N)C(C)C)c3cc(F)ccc32)cc1` [Compound 24], for which the EC50 was found to be 39 µM.

For the compound `COc1cc(/C=C2/C(C)=C(CNC(=O)[C@@H](N)C(C)C)c3cc(F)ccc32)cc(OC)c1OC` [Compound 32], the 50% effective concentration (EC50) came out at 110 µM.

Staying with this data set, now noted: confidence intervals in parentheses; NA: not active.
Regarding “3,4,5-trimethoxybenzylidene-3-indenylmethyl-2-phenylacetamide [Compound 26]”, the EC50 stood at 8.3 µM.

Turning to `COc1cc(/C=C2/C(C)=C(CN(Cc3ccncc3)Cc3ccncc3)c3cc(F)ccc32)cc(OC)c1OC` [Compound 56], the EC50 was determined as 58 µM.

A further data set deals with Acute T cell leukemia Jurkat e6-1 cells (JURKT). The data set is described as follows: Additional cancer cell line panel, JURKT. It is filed as cell-based. Conditions: Homo sapiens, Jurkat E6.1; confidence intervals in parentheses; NA: not active.
In the case of `CSc1ccc(/C=C2/C(C)=C(CNC(=O)[C@@H](N)C(C)C)c3cc(F)ccc32)cc1` [Compound 24], the 50% effective concentration (EC50) amounted to 15 µM.

Still in this data set, the particulars now being: confidence intervals in parentheses; NA: not active.
For the compound “3,4,5-trimethoxybenzylidene-3-indenylmethyl-2-phenylacetamide [Compound 26]”, the concentration for a half-maximal effect (EC50) came out at 11 µM.

For another data set, the system named is REH cells (precursor B-cell ALL). The data set is described as follows: Additional cancer cell line panel, REH. The format is cell-based, human. Conditions: Homo sapiens, REH, read-out: EC50 REH.
For `COc1cc(/C=C2/C(C)=C(CNC(=O)[C@@H](N)CC(C)C)c3cc(F)ccc32)cc(OC)c1OC` [Compound 31], the concentration giving a half-maximal response (EC50) worked out at 16 µM.

Still in this data set, the particulars now being: Homo sapiens, REH; confidence intervals in parentheses; NA: not active; read-out: EC50 REH.
On to `CSc1ccc(/C=C2/C(C)=C(CNC(=O)[C@@H](N)CC(C)C)c3cc(F)ccc32)cc1` [Compound 23], for which the concentration giving a half-maximal response (EC50) worked out at 16 µM.

With `CSc1ccc(/C=C2/C(C)=C(CNC(=O)[C@@H](N)C(C)C)c3cc(F)ccc32)cc1` [Compound 24], the EC50 stood at 14 µM.

As to `COc1cc(/C=C2/C(C)=C(CNC(=O)[C@@H](N)C(C)C)c3cc(F)ccc32)cc(OC)c1OC` [Compound 32], the EC50 was 21 µM.

The same data set, now with this note: confidence intervals in parentheses; NA: not active; read-out: EC50 REH.
As to “3,4,5-trimethoxybenzylidene-3-indenylmethyl-2-phenylacetamide [Compound 26]”, the concentration giving a half-maximal response (EC50) worked out at 19 µM.

`COc1cc(/C=C2/C(C)=C(CN(Cc3ccncc3)Cc3ccncc3)c3cc(F)ccc32)cc(OC)c1OC` [Compound 56]: the half-maximal effective concentration (EC50) worked out at 32 µM.

For the next data set, the system named is Cell line 697 (ALL in relapse). The data set is described as follows: Additional cancer cell line panel, 697. The format is cell-based, human. The note with it: Homo sapiens; confidence intervals in parentheses; NA: not active. The text has this: (§1) Most analogs in the presented series are lipophilic while also containing a positively charged amine. Lipophilic basic amines can accumulate in cell membranes if their lipophilic atom groups form favorable non-polar contacts with lipid chains while their charged amine is interacting with fatty acid head groups. Such association with lipids can lead to cytotoxicity through membrane destabilization. Therefore, we evaluated a number of representative compounds against BJ cells, a normal human foreskin fibroblast cell line, where cytotoxicity was determined at 10 µM drug concentration, as described previously.
(§2) minimum locked at 0 and 100 respectively.
(§3) children with ALL in relapse.
(§4) foreskin fibroblast cell line (BJ).
(§5) Table 2. […] SSA: Sulindac sulfide
For the compound `CSc1ccc(/C=C2/C(C)=C(CNC(=O)[C@@H](N)C(C)C)c3cc(F)ccc32)cc1` [Compound 24], the concentration for a half-maximal effect (EC50) was 16 µM.

The data set is the same for the next values; noted with them: confidence intervals in parentheses; NA: not active.
On to “3,4,5-trimethoxybenzylidene-3-indenylmethyl-2-phenylacetamide [Compound 26]”, for which the EC50 was determined as 15 µM.

System in the next data set: not listed separately
The data set is described as follows: BJ cell cytotoxicity counter screen. The note with it: human.
Text: as §1, §2, §3, §4, §5
For the compound `COc1cc(/C=C2/C(C)=C(CNC(=O)[C@@H](N)CC(C)C)c3cc(F)ccc32)cc(OC)c1OC` [Compound 31], the EC50 is > 22.7 µM.

The data set is the same for the next values; noted with them: human, BJ cells (normal human foreskin fibroblast cell line).
With `CSc1ccc(/C=C2/C(C)=C(CNC(=O)[C@@H](N)CC(C)C)c3cc(F)ccc32)cc1` [Compound 23], the EC50 worked out at 16.4 µM.

The compound `CSc1ccc(/C=C2/C(C)=C(CNC(=O)[C@@H](N)C(C)C)c3cc(F)ccc32)cc1` [Compound 24] had a half-maximal effective concentration (EC50) of 16.7 µM.

With `COc1cc(/C=C2/C(C)=C(CNC(=O)[C@@H](N)C(C)C)c3cc(F)ccc32)cc(OC)c1OC` [Compound 32], the EC50 is > 22.7 µM.

The test system of another data set is BJ cells, normal human foreskin fibroblast cell line. The data set is described as follows: BJ cell cytotoxicity counter screen.
Details: not given
Text: as §1, §2, §3, §4, §5
For orientation: Counterscreens check selectivity or assay interference.
Take `COc1cc(/C=C2/C(C)=C(CN(Cc3ccncc3)Cc3ccncc3)c3cc(F)ccc32)cc(OC)c1OC` [Compound 56]: the half-maximal effective concentration (EC50) was > 22.7 µM.

Staying with this data set, now noted: read-out: EC50 BJ (cytotoxicity); BJ normal human foreskin fibroblasts; confidence intervals in parentheses.
On to “3,4,5-trimethoxybenzylidene-3-indenylmethyl-2-phenylacetamide [Compound 26]”, for which the EC50 is > 22.7 µM.

System in the next data set: not given
Assay: not given
Details: not given
With `CSc1ccc(/C=C2/C(C)=C(CNC(=O)[C@@H](N)C(C)C)c3cc(F)ccc32)cc1` [Compound 24], the melting point was 133 to 135 °C.

The CC50 is the concentration at which the toxic effect on the cells reaches its halfway point. For orientation: EC50 means the concentration needed to bring the measured effect to its halfway point. What is called melting point is the temperature of the solid-liquid transition.
